Measurements as given in publication PMC12406204 (Journal of Medicinal Chemistry, 2025).

Experiments:
[1] = Mouse microsomal stability; format: in vitro ADME; settings: for microsomal stability % remanent: Mouse, sampling time 60 min; for microsomal CLint / half-life: mouse, microsomes, pH 7.4; for half-life: read-out: microsomal stability t1/2
[2] = Human microsomal stability; format: in vitro ADME; settings: for microsomal stability % remanent: Human, sampling time 60 min; for microsomal CLint / half-life: human, liver microsomes, pH 7.4; for half-life: read-out: microsomal stability t1/2
Procedure: The human microsomal stability of selected compounds was evaluated by following a previously described method. The human microsomes employed were purchased from Tebu-Xenotech. The compound was incubated with the microsomes at 37 °C in a 50 mM phosphate buffer (pH = 7.4) containing 3 mM MgCl2, 1 mM NADP, 10 mM glucose-6-phosphate and 1 U/mL glucose-6-phosphate-dehydrogenase. Samples (75 μL) were taken from each well at 0, 10, 20, 40, and 60 min and transferred to a plate containing 4 °C 75 μL acetonitrile and 30 μL of 0.5% formic acid in water were added for improving the chromatographic conditions. The plate was centrifuged ([…], 30 min) and supernatants were taken and analyzed in an UPLC-MS/MS (Xevo-TQD, Waters) by employing a BEH C18 column and an isocratic gradient of 0.1% formic acid in water: 0.1% formic acid acetonitrile (60:40). The metabolic stability of the compounds was calculated from the logarithm of the remaining compounds at each of the time point studied.

mouse primary neurons = experiment: Neuroprotection in primary cultures exposed to LPS + IFN-γ; format: cell-based
Procedure: To unequivocally confirm that the observed neuroprotective effect was indeed mediated by CB2R activation, an additional experiment was conducted (Figure C).
To prepare primary neurons, brains from fetuses of pregnant CD1 mice were removed (gestational age: 19 days). Neurons were isolated as described in Hradsky et al. Briefly, after removal of the meninges, samples were dissected and digested with 0.25% trypsin (20 min at 37 °C). The effect of trypsin was stopped by adding an equal volume of culture medium (supplemented DMEM). A single-cell suspension was obtained by repeated pipetting followed by passage through a 100 μm-pore mesh. Pelleted (7 min, 200g) cells were resuspended in 2 mL of supplemented DMEM and seeded at a density of 3.5 × 10^5 cells/mL in 6-well plates. […]
Primary cultures of striatal neurons were treated for 24 h with selected SCRAs (100 nM). […] After ∼3 min of incubation at room temperature, 10 μL of the mixture were sampled in a Neubauer chamber and counted with a Countess II FL (Life Technologies, California, CA, USA). The unstained (viable) and stained (nonviable) cells were counted separately, and the percentage of viability was calculated as total number of viable cells/total number of cells × 100.

CB1R = CB1R (Homo sapiens, UniProt P21554); experiment: CB1R Gi protein-mediated cAMP inhibition assay; format: cell-based; settings: for functional selectivity ratio: CB1R vs CB2R cAMP EC50
CB1R, sequence (P21554 whole entry): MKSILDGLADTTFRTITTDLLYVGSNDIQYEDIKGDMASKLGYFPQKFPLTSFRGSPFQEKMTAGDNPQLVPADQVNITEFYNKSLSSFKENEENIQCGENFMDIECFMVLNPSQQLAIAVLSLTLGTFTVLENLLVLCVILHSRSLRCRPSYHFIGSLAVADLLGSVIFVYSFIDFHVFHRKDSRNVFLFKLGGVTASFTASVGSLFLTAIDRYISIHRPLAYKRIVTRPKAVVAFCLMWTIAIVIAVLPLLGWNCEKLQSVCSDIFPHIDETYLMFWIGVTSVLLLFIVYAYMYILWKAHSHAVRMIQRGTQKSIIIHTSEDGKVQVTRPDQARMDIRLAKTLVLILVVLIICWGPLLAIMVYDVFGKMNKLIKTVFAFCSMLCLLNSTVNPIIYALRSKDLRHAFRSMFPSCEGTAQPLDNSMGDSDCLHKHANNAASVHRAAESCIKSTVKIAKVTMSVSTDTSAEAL
Source text: Given their excellent CB2R functional activity and ability to cross the blood–brain barrier, compounds 18p and 18o were selected for CB1R functional evaluation to assess potential risks of CB1R-mediated central effects. […] Full CB1R dose–response curves are provided in the Supporting Information (Figure S6).

SMILES | microsomal stability % remanent [1] [%] | microsomal CLint [1] [µL/min/mg] | half-life [1] [min] | microsomal stability % remanent [2] [%] | microsomal CLint [2] [µL/min/mg] | half-life [2] [min] | cell viability after LPS + IFN-γ with CB2R antagonist SR144528 (mouse primary neurons; compound alongside SR144528) [%] | cell viability after LPS + IFN-γ (mouse primary neurons; primary cultures exposed to LPS + IFN-γ) [%] | EC50 (CB1R) [nM] | Emax (CB1R) [%] | functional selectivity ratio (CB1R)
NC(=O)[C@@H]1CCCCN1C(=O)c1cn(CC2CCCCC2)c2ccccc12 [18e] | 22.3 | 54.3 | 21.8 | 15.9 | 67.3 | 19.4 |  |  |  |  | 
NC(=O)[C@@H]1CCCCN1C(=O)c1nn(Cc2ccc(F)cc2)c2ccccc12 [18o] | 28.4 | 26.1 | 28 | 59.6 | 11.8 | 50.9 | ~60 | ~100 | 1070 ± 57 | 36 | > 1780
NC(=O)[C@H]1CCCCN1C(=O)c1nn(Cc2ccc(F)cc2)c2ccccc12 [18p] |  |  |  |  |  |  |  |  | 755 ± 31 | 45 | 111
